How the values were obtained:
human H3 receptor [1] = biological target: T1, human H3 receptor (Homo sapiens, UniProt Q9Y5N1); assay: In vitro H3 binding assay (3H-N-α-methyl-histamine competition binding); settings: membranes of CHO-K1 cells expressing human H3 receptor; 2 nM 3H-NαMH; read-out: hH3 binding IC50
T1 construct: expressed in transfected cells
Method in brief: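 Membranes from CHO-K1 cells stably expressing human H3 (5 μg/well) incubated 1 h at room temperature with compound and 2 nM ³H-NαMH in 50 mM Tris-HCl pH 7.4, 5 mM MgCl2; non-specific binding defined with 1 μM RαMH. Bound radioactivity measured by filtration and scintillation; IC50 from seven-point curves by variable-slope sigmoidal regression.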

human H3 receptor [2] = biological target: T1, human H3 receptor; assay: In vitro H3 functional assay (cAMP response element driven luciferase reporter); format: cell-based; settings: CHO(dhfr+)-cre-luc cells expressing human H3 receptor; RαMH 10 nM, forskolin 1 μM; read-out: hH3 functional IC50
Description: The functional activity of compounds at the H3 receptor was determined by measuring changes in the level of intracellular cAMP using a cAMP response element driven luciferase reporter assay. The changes in luciferase expression were monitored by a luminescence plate reader, Analyst HT (MDS Analytical). Increases in intracellular cAMP were readily detected upon activation of protein kinase A by forskolin (Sigma) and suppression of this response observed with the application of the H3 receptor agonist RαMH (Sigma).
CHO(dhfr^+)-cre-luc cells stably expressing human H3 receptor were routinely grown as monolayers in Minimal Essential Medium α (MEMα) (Invitrogen) supplemented with 10% dialysed FBS (Hyclone), in 5% CO2 at 37° C. 48 hours prior to assay, cells were seeded in clear-base white walled 384-well plates (Corning) at a density of 5000 cells/well. On the day of assay, growth media was removed and replaced with […] of assay buffer (MEMα, 5 mg/ml fatty acid free BSA (Sigma)) per well. Cells were then incubated for 30 minutes at 37° C., 5% CO2. Compound was serially diluted in DMSO before being diluted 1:10 with assay buffer. 2.5 of compound diluted in assay buffer was added and cells incubated for 5 minutes at 37° C., 5% CO2. 2.5 μl of each reagent was then added in the following order: RαMH (10 nM), isobutylmethylxanthine (1-methyl-3-(2-methylpropyl)-7H-purine-2,6-dione; IBMX) (500 μM) (Sigma) and forskolin (1 μM). Cells were then incubated for 90 minutes at 37° C., 5% CO2, followed by 30 minutes at room temperature. At the end of incubation 25 μl of Steadylite reagent (Perkin Elmer) was added, plates were sealed and placed on a shaker for 5 minutes. The level of light output to determine the level of luciferase expression was then measured.
IC50 values for compounds were determined from ten point half log scale dose-response studies and represent the concentration of compound required to […] 50% inhibition of forskolin stimulated cells in the presence of RαMH alone. Curves were generated using the average of duplicate wells for each data point and analyzed using nonlinear regression of four parameter dose response.

T1 sequence (Q9Y5N1 whole entry): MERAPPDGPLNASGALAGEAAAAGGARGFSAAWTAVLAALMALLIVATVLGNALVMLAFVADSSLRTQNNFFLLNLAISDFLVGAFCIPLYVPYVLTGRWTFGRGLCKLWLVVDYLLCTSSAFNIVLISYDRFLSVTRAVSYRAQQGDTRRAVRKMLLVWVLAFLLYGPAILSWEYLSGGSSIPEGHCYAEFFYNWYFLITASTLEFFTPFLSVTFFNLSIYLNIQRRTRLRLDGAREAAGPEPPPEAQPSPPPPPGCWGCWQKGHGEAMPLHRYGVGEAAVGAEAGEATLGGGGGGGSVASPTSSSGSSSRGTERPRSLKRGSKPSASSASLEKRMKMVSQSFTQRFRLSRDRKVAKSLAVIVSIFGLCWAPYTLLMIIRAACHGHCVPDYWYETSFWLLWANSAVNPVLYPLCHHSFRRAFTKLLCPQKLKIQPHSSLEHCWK

`O=C(NCc1nc2ccccc2s1)c1ccc2c(c1)CCN(C1CCC1)CC2` [Example 78, N-(Benzo[d]thiazol-2-ylmethyl)-3-cyclobutyl-2,3,4,5-tetrahydro-1H-benzo[d]azepine-7-carboxamide] gave an IC50 (human H3 receptor [1]) of 4 nM and an IC50 (human H3 receptor [2]) of 2 nM.
`Cn1c(CNC(=O)c2ccc3c(c2)CCN(C2CCC2)CC3)nc2ccccc21` [Example 79, 3-Cyclobutyl-N-((1-methyl-1H-benzo[d]imidazol-2-yl)methyl)-2,3,4,5-tetrahydro-1H-benzo[d]azepine-7-carboxamide] showed an IC50 (human H3 receptor [1]) of 6 nM and an IC50 (human H3 receptor [2]) of 3 nM.
`O=C(NCc1ccc2nccn2c1)c1ccc2c(c1)CCN(C1CCC1)CC2` [Example 81, 3-Cyclobutyl-N-(imidazo[1,2-a]pyridin-6-ylmethyl)-2,3,4,5-tetrahydro-1H-benzo[d]azepine-7-carboxamide] was tested, and the IC50 (human H3 receptor [1]) was 0.4 nM and the IC50 (human H3 receptor [2]) was 0.8 nM.
For `O=C(NCc1nccs1)c1ccc2c(c1)CCN(C1CCC1)CC2` [Example 86, 3-Cyclobutyl-N-(thiazol-2-ylmethyl)-2,3,4,5-tetrahydro-1H-benzo[d]azepine-7-carboxamide], the IC50 (human H3 receptor [1]) was 3 nM and the IC50 (human H3 receptor [2]) was 1 nM.
`O=C(NCc1ccsc1)c1ccc2c(c1)CCN(C1CCC1)CC2` [Example 88, 3-Cyclobutyl-N-(thiophen-3-ylmethyl)-2,3,4,5-tetrahydro-1H-benzo[d]azepine-7-carboxamide] gave an IC50 (human H3 receptor [1]) of 5 nM and an IC50 (human H3 receptor [2]) of 2 nM.
With `O=C(NCc1ccc(C(F)(F)F)o1)c1ccc2c(c1)CCN(C1CCC1)CC2` [Example 92, 3-cyclobutyl-N-((5-(trifluoromethyl)furan-2-yl)methyl)-2,3,4,5-tetrahydro-1H-benzo[d]azepine-7-carboxamide] the IC50 (human H3 receptor [1]) was 4 nM and the IC50 (human H3 receptor [2]) was 1 nM.
`Cc1c(CNC(=O)c2ccc3c(c2)CCN(C2CCC2)CC3)cnn1C` [Example 97, 3-Cyclobutyl-N-((1,5-dimethyl-1H-pyrazol-4-yl)methyl)-2,3,4,5-tetrahydro-1H-benzo[d]azepine-7-carboxamide] gave an IC50 (human H3 receptor [1]) of 9 nM and an IC50 (human H3 receptor [2]) of 2 nM.
In the case of `CCn1nccc1CNC(=O)c1ccc2c(c1)CCN(C1CCC1)CC2` [Example 100, 3-cyclobutyl-N-((1-ethyl-1H-pyrazol-5-yl)methyl)-2,3,4,5-tetrahydro-1H-benzo[d]azepine-7-carboxamide], the IC50 (human H3 receptor [1]) is reported as 2 nM and the IC50 (human H3 receptor [2]) is reported as 0.5 nM.
In the case of `Cn1ccc(CNC(=O)c2ccc3c(c2)CCN(C2CCC2)CC3)n1` [Example 103, 3-Cyclobutyl-N-((1-methyl-1H-pyrazol-3-yl)methyl)-2,3,4,5-tetrahydro-1H-benzo[d]azepine-7-carboxamide], the IC50 (human H3 receptor [1]) is reported as 11 nM and the IC50 (human H3 receptor [2]) is reported as 1 nM.
`Cn1nc(CNC(=O)c2ccc3c(c2)CCN(C2CCC2)CC3)cc1-c1ccccc1` [Example 108, 3-Cyclobutyl-N-((1-methyl-5-phenyl-1H-pyrazol-3-yl)methyl)-2,3,4,5-tetrahydro-1H-benzo[d]azepine-7-carboxamide] was tested, and the IC50 (human H3 receptor [1]) was 1 nM and the IC50 (human H3 receptor [2]) was 4 nM.
For `Cn1cccc1CNC(=O)c1ccc2c(c1)CCN(C1CCC1)CC2` [Example 111, 3-Cyclobutyl-N-((1-methyl-1H-pyrrol-2-yl)methyl)-2,3,4,5-tetrahydro-1H-benzo[d]azepine-7-carboxamide], the IC50 (human H3 receptor [1]) was 7 nM and the IC50 (human H3 receptor [2]) was 7 nM.
With `Cn1cncc1CNC(=O)c1ccc2c(c1)CCN(C1CCC1)CC2` [Example 114, 3-Cyclobutyl-N-((1-methyl-1H-imidazol-5-yl)methyl)-2,3,4,5-tetrahydro-1H-benzo[d]azepine-7-carboxamide] the IC50 (human H3 receptor [1]) was 12 nM and the IC50 (human H3 receptor [2]) was 19 nM.
`Cn1ccc(CCC(=O)c2ccc3c(c2)CCN(C2CCC2)CC3)n1` [Example 134, 1-(3-cyclobutyl-2,3,4,5-tetrahydro-1H-benzo[d]azepin-7-yl)-3-(1-methyl-1H-pyrazol-3-yl)propan-1-one] showed an IC50 (human H3 receptor [1]) of 13 nM and an IC50 (human H3 receptor [2]) of 1 nM.
`OC(Cc1ccc2c(c1)CCN(C1CCC1)CC2)c1ccccn1` (stereo not shown) [Example 143, 2-(3-cyclobutyl-2,3,4,5-tetrahydro-1H-benzo[d]azepin-7-yl)-1-(pyridin-2-yl)ethanol] was tested, and the IC50 (human H3 receptor [1]) was 24 nM and the IC50 (human H3 receptor [2]) was 7 nM.
For `CC(=O)N1CCCC(CNC(=O)c2ccc3c(c2)CCN(C2CCC2)CC3)C1` (stereo not shown) [Example 164, N-((1-acetylpiperidin-3-yl)methyl)-3-cyclobutyl-2,3,4,5-tetrahydro-1H-benzo[d]azepine-7-carboxamide], the IC50 (human H3 receptor [1]) was 10 nM and the IC50 (human H3 receptor [2]) was 5 nM.
With `NC(=O)c1ccc2c(c1)CCN(C1CCC1)CC2` [Example 167, 3-cyclobutyl-2,3,4,5-tetrahydro-1H-benzo[d]azepine-7-carboxamide] the IC50 (human H3 receptor [1]) was 22 nM and the IC50 (human H3 receptor [2]) was 71 nM.
`O=C(NCC1CCS(=O)(=O)C1)c1ccc2c(c1)CCN(C1CCC1)CC2` (stereo not shown) [Example 171, 3-Cyclobutyl-2,3,4,5-tetrahydro-1H-benzo[d]azepine-7-carboxylic acid (1,1-dioxo-tetrahydro-1lambda*6*-thiophen-3-ylmethyl)-amide] was tested, and the IC50 (human H3 receptor [1]) was 14 nM and the IC50 (human H3 receptor [2]) was 4 nM.
For `O=C(NCc1ccc2c(c1)CCN(C1CCC1)CC2)c1cnccn1` [Example 181, N-((3-cyclobutyl-2,3,4,5-tetrahydro-1H-benzo[d]azepin-7-yl)methyl)pyrazine-2-carboxamide], the IC50 (human H3 receptor [1]) was 21 nM and the IC50 (human H3 receptor [2]) was 4 nM.
`O=C(NCc1ccc2c(c1)CCN(C1CCC1)CC2)c1cncc(F)c1` [Example 191, N-((3-cyclobutyl-2,3,4,5-tetrahydro-1H-benzo[d]azepin-7-yl)methyl)-5-fluoronicotinamide] gave an IC50 (human H3 receptor [1]) of 13 nM and an IC50 (human H3 receptor [2]) of 2 nM.
Work on `O=C(NCc1ccc2c(c1)CCN(C1CCC1)CC2)N1CCCC1` [Example 194, N-((3-cyclobutyl-2,3,4,5-tetrahydro-1H-benzo[d]azepin-7-yl)methyl)pyrrolidine-1-carboxamide] yielded an IC50 (human H3 receptor [1]) of 26 nM and an IC50 (human H3 receptor [2]) of 7 nM.
`Cc1ncc(C(=O)NCc2ccc3c(c2)CCN(C2CCC2)CC3)cn1` [Example 211, N-((3-cyclobutyl-2,3,4,5-tetrahydro-1H-benzo[d]azepin-7-yl)methyl)-2-methylpyrimidine-5-carboxamide] showed an IC50 (human H3 receptor [1]) of 6 nM and an IC50 (human H3 receptor [2]) of 9 nM.
For `CC(C)(O)CC(=O)NCc1ccc2c(c1)CCN(C1CCC1)CC2` [Example 216, N-((3-cyclobutyl-2,3,4,5-tetrahydro-1H-benzo[d]azepin-7-yl)methyl)-3-hydroxy-3-methylbutanamide], the IC50 (human H3 receptor [1]) was 41 nM and the IC50 (human H3 receptor [2]) was 20 nM.
In the case of `Cn1nccc1NC(=O)Cc1ccc2c(c1)CCN(C1CCC1)CC2` [Example 221, 2-(3-cyclobutyl-2,3,4,5-tetrahydro-1H-benzo[d]azepin-7-yl)-N-(1-methyl-1H-pyrazol-5-yl)acetamide], the IC50 (human H3 receptor [1]) is reported as 11 nM and the IC50 (human H3 receptor [2]) is reported as 3 nM.
In the case of `O=C(Cc1ccc2c(c1)CCN(C1CCC1)CC2)Nc1cccnc1` [Example 224, 2-(3-cyclobutyl-2,3,4,5-tetrahydro-1H-benzo[d]azepin-7-yl)-N-(pyridin-3-yl)acetamide], the IC50 (human H3 receptor [1]) is reported as 2 nM and the IC50 (human H3 receptor [2]) is reported as 4 nM.
`CCNC(=O)C1CCC(O)(Cc2ccc3c(c2)CCN(C2CCC2)CC3)CC1` (stereo not shown) [Example 231, 4-((3-cyclobutyl-2,3,4,5-tetrahydro-1H-benzo[d]azepin-7-yl)methyl)-N-ethyl-4-hydroxycyclohexanecarboxamide] gave an IC50 (human H3 receptor [1]) of 23 nM and an IC50 (human H3 receptor [2]) of 15 nM.
With `CC(C)(O)c1ccc(C(=O)NCc2ccc3c(c2)CCN(C2CCC2)CC3)cn1` [Example 239, N-((3-cyclobutyl-2,3,4,5-tetrahydro-1H-benzo[d]azepin-7-yl)methyl)-6-(2-hydroxypropan-2-yl)nicotinamide] the IC50 (human H3 receptor [1]) was 16 nM and the IC50 (human H3 receptor [2]) was 1 nM.
With `O=C(NCc1ccc2c(c1)CCN(C1CC(F)C1)CC2)c1ccc(N2CCCC2)nc1` (stereo not shown) [Example 242, N-((3-(3-fluorocyclobutyl)-2,3,4,5-tetrahydro-1H-benzo[d]azepin-7-yl)methyl)-6-(pyrrolidin-1-yl)nicotinamide] the IC50 (human H3 receptor [1]) was 0.6 nM and the IC50 (human H3 receptor [2]) was 3 nM.
`COc1ccc(CC(=O)Cc2ccc3c(c2)CCN(C2CCC2)CC3)cn1` [Example 244, 1-(3-cyclobutyl-2,3,4,5-tetrahydro-1H-benzo[d]azepin-7-yl)-3-(6-methoxypyridin-3-yl)propan-2-one] showed an IC50 (human H3 receptor [1]) of 10 nM and an IC50 (human H3 receptor [2]) of 6 nM.
Compound `O=C(NCc1ccc2c(c1)CCN(C1CCC1)CC2)c1ccc(NC2CCC2)nc1` [Example 253, N-((3-cyclobutyl-2,3,4,5-tetrahydro-1H-benzo[d]azepin-7-yl)methyl)-6-(cyclobutylamino)nicotinamide] has an IC50 (human H3 receptor [1]) of 1 nM and an IC50 (human H3 receptor [2]) of 4 nM.

— patent US20110124626A1, “BENZAZEPINE DERIVATIVES AND THEIR USE AS HISTAMINE H3 ANTAGONISTS” (TAKEDA PHARMACEUTICAL COMPANY LIMITED, priority 2008, published 2011)
